This note sets out measurements from PubChem BioAssay (NCI).

Common to all, as to experiment: inhibition of tumour cell growth, NCI panel, 48 h
Experiment [1] concerns 786-0 renal.
Experiment [2] concerns COLO 205 colon.
The test system of experiment [3] is DU-145 prostate.
Experiment [4] relates to HCC-2998 colon.
For experiment [5], the system named is LOX IMVI melanoma.
The subject of experiment [6] is MDA-MB-435.
For experiment [7], the system named is SF-539 CNS.
The test system of experiment [8] is SK-MEL-2 melanoma.
In experiment [9] the test system is SK-MEL-5 melanoma.
Experiment [10] has as its system UACC-257 melanoma.

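Cultured in 96-well plates, cells were exposed to test compound for 48 hours across five concentrations. GI50 marks 50% less growth. TGI marks complete inhibition of growth.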

In the case of `CCSCC(=O)N1CCc2c([nH]c3ccccc23)C1=O`, the TGI in [1], in experiment [2], in experiment [3], in experiment [4], in [5] and in [6] was over 100 µM in each case. The TGI in [7], in experiment [8], in [9] and in [10] was over 100 µM each time.

With `COC(=O)C1=COC(C)C2C[n+]3ccc4c([nH]c5ccccc54)c3CC12` (centres undefined), the TGI in experiment [1], in [2], in [3], in experiment [4], in [5] and in experiment [6] was over 100 µM throughout. In addition, the TGI in experiment [7], in experiment [8], in experiment [9] and in experiment [10] was over 100 µM each time.

Consider `COc1ccc(C[C@H]2NC(=O)/C=C/C[C@@H]([C@H](C)[C@H]3O[C@@H]3c3ccccc3)OC(=O)[C@H](CC(C)C)OC(=O)[C@H](C)CNC2=O)cc1`, for which the TGI is over 0.0001 µM in [1]; 4.99e-05 µM in [2]; over 8.97e-05 µM in experiment [3]; over 0.0001 µM in [4]; over 0.0001 µM in experiment [5]; 1.45e-05 µM in [6]. Further, the TGI was 4.36e-05 µM in [7], over 0.0001 µM in experiment [8], 7.06e-05 µM in [9] and over 0.0001 µM in experiment [10].

Consider `Cc1ccc(S(=O)(=O)N(CC(O)c2ccccc2)c2ccccc2F)cc1` (centres undefined), for which the TGI was 34.7 µM in [1]; 28.8 µM in experiment [2]; 32.2 µM in experiment [3]; 53.2 µM in experiment [4]; 31.5 µM in experiment [5]; 32.9 µM in experiment [6]. In addition, the TGI was determined as 30.7 µM in experiment [7], 32.1 µM in [8], 29.6 µM in [9] and 16.1 µM in experiment [10].

As to `CC(=O)N1CC(C)(C)c2c1cc(C)c(O)c2C`, the TGI in experiment [1], in [2], in [3], in [4], in [5] and in experiment [6] was over 100 µM throughout. Besides, the TGI in [7], in experiment [8], in experiment [9] and in experiment [10] was over 100 µM throughout.

For the compound `O=c1[nH]c2nccnc2c2c([N+](=O)[O-])cccc12`, the TGI in [1], in experiment [2], in experiment [3], in experiment [4], in experiment [5] and in experiment [6] was over 100 µM each time. In addition, the TGI in experiment [7], in experiment [8] and in experiment [9] was over 100 µM each time.

With `O=C1OC(C2Cc3ccccc3C2=O)c2ccccc21` (centres undefined), the TGI in [1], in [2], in [3], in experiment [4], in [5] and in [6] was over 100 µM in each case. Also, the TGI in experiment [7], in experiment [8], in experiment [9] and in experiment [10] was over 100 µM throughout.

Turning to `O=C(Nc1ccc(-n2cc(-c3ccncc3)c(-c3ccc(O)c(Cl)c3)n2)cc1)c1cc(Cl)cc(Cl)c1`, the GI50 in experiment [2] was over 32.5 µM; in experiment [3], 2.17 µM; in [4], 11.8 µM; in experiment [5] it was 0.853 µM; in experiment [6], 1.87 µM; in experiment [7], 1.01 µM. Further, the figures for the GI50 in experiment [8], in experiment [9] and in [10] were 0.899 µM, 0.877 µM and 13.8 µM, respectively. The TGI in [2], in experiment [3], in [4], in [5], in experiment [6] and in experiment [7] was over 32.5 µM in each case. Besides, the TGI in [8] is 2.94 µM; in experiment [9], 6.85 µM; in experiment [10], over 32.5 µM.

On to `O=c1c2ncn(C3CCCCO3)c2n(-c2ccccc2)c(=S)n1-c1ccccc1` (centres undefined), for which the TGI in experiment [1] is over 86.2 µM; in experiment [2] it was over 100 µM; in experiment [3], over 100 µM; in experiment [4], over 100 µM; in experiment [5], over 100 µM; in experiment [6] it was over 100 µM. Besides, the TGI in experiment [7] is 32.4 µM; in [8], over 79.7 µM; in [9], over 100 µM; in experiment [10], over 100 µM.

With `COc1cc(C(=O)O[C@H](C(=O)NCCNC(=O)[C@@H](OC(=O)c2cc(OC)cc3c(C)cccc23)[C@]2(C)CO2)[C@]2(C)CO2)c2cccc(C)c2c1`, the GI50 in experiment [2] is 0.149 µM; in experiment [3], 0.257 µM; in [4], 0.0953 µM; in experiment [5], under 0.01 µM; in experiment [7] it was under 0.0348 µM; in experiment [8], under 0.0461 µM. For the same compound, the GI50 in experiment [9] is 0.0331 µM. Also, the TGI in experiment [3] is 1.46 µM; in [4], 2.49 µM; in experiment [6], 0.696 µM; in experiment [7], 0.371 µM; in experiment [9], 0.28 µM; in [10], 0.343 µM.

Turning to `NNC(=O)Cc1cccnc1`, the TGI in [1], in experiment [2], in experiment [3], in experiment [4], in experiment [5] and in experiment [6] was over 100 µM throughout. The TGI in [7], in experiment [8], in experiment [9] and in experiment [10] was over 100 µM in each case.

Consider `O=c1[nH]nc(-c2ccc([N+](=O)[O-])cc2)n1/N=C/c1ccc([N+](=O)[O-])cc1`, for which the TGI in experiment [1] is over 100 µM; in experiment [2], over 100 µM; in experiment [3] it was over 100 µM; in [4], over 100 µM; in experiment [5], 34.4 µM; in experiment [6], over 100 µM. The TGI in experiment [7], in experiment [8], in experiment [9] and in experiment [10] was over 100 µM in each case.

`COc1ccc(-c2cc(C3CC3)nc(SCC(=O)O)c2C#N)cc1`: the TGI in experiment [1], in experiment [2], in [3], in experiment [4], in experiment [5] and in experiment [6] was over 100 µM each time. Moreover, the TGI in experiment [7], in [8], in [9] and in experiment [10] was over 100 µM each time.

As to `CC(=O)c1cc2c(s1)C(=O)c1scc(C(C)=O)c1C2=O`, the TGI in experiment [1] came to 1.9 µM; in experiment [2], 3.54 µM; in [3], 2.86 µM; in [4], 3.58 µM; in experiment [5], 0.224 µM; in [6], 0.496 µM. Also, the TGI in [7] came to 2.44 µM; in experiment [8], 1.3 µM; in [9], 1.53 µM; in experiment [10], 0.544 µM.

Consider `OC12C3C4CC5C(C4[C@@H]1Br)C2[C@@](O)(c1c(F)c(F)c(F)c(F)c1F)C53` (some centres undefined), for which the TGI in experiment [1], in experiment [2], in experiment [3], in experiment [4], in [5] and in experiment [6] was over 100 µM in each case. Further, the TGI in experiment [7] is over 100 µM; in experiment [8], 69.2 µM; in experiment [9], 59.3 µM; in [10] it was over 100 µM.

For `CSc1nc2c(c(=O)n1C)N=C(c1ccc(Cl)cc1)CC(c1ccccc1)N2` (centres undefined), the TGI in [1] is over 100 µM; in experiment [2], 39.2 µM; in [3] it was 73 µM; in [4], 53.1 µM; in [5], 54.3 µM; in [6], over 100 µM. The TGI in [7] worked out at 31.7 µM; in experiment [8], 29.5 µM; in experiment [9], 33.7 µM; in experiment [10], 54.8 µM.

Regarding `O=c1[nH]nc(Cc2ccccc2)n1/N=C/c1ccc([N+](=O)[O-])o1`, the TGI was 22.7 µM in [1]; over 100 µM in experiment [2]; 42.3 µM in experiment [3]; 71.6 µM in [4]; over 100 µM in [5]; 3.8 µM in experiment [6]. Also, the values for the TGI in experiment [7], in experiment [8] and in [10] were 8.94 µM, 16 µM and 19.7 µM, respectively.

On to `OCCN1CN(c2nc(N3CN(CCO)C3)nc(N3CN(CCO)C3)n2)C1`, for which the TGI in [1] stood at 60.7 µM; in experiment [2], 59.2 µM; in experiment [3] it was 54.7 µM; in [4], 41.7 µM; in [5], 33.5 µM; in experiment [6] it was 32.4 µM. Also, the TGI was 35 µM in experiment [7], 41.9 µM in experiment [8], 33.4 µM in experiment [9] and 36.2 µM in experiment [10].

For the compound `CN1c2ccccc2C(=O)NC12CCN(Cc1ccccc1)CC2`, the TGI in [1], in experiment [2], in experiment [3], in [4], in experiment [5] and in experiment [6] was over 100 µM each time. The TGI in experiment [7], in experiment [9] and in experiment [10] was over 100 µM throughout.

Take `CCOC(=O)CN=C1Nc2ccccc2C(=O)N2CSCC12` (centres undefined): the TGI in experiment [1], in [2], in experiment [3], in experiment [4], in [5] and in experiment [6] was over 100 µM each time. For the same compound, the TGI in experiment [8], in [9] and in experiment [10] was over 100 µM throughout.

With `CC1=NC2(CCCCC2)N(Cl)C(=O)C1SC#N` (centres undefined), the TGI in [1] is 31.9 µM; in [2] it was over 100 µM; in experiment [3], over 100 µM; in [4], 42 µM; in experiment [5], 35.4 µM; in [6], 37.7 µM. For the same compound, the values for the TGI in experiment [7], in experiment [8] and in [9] were 35.9 µM, 48.2 µM and 39.8 µM, respectively.

For `CC1(C)CC(=O)C2=C(C1)NC(SCC(=O)O)=C(C#N)C2c1ccc(Br)cc1` (centres undefined), the TGI in experiment [1], in [2], in experiment [3], in experiment [4], in experiment [5] and in [6] was over 100 µM throughout. Further, the TGI in experiment [8], in [9] and in experiment [10] was over 100 µM throughout.

`O=C1C=C(N2CCCC2)C(=O)c2c(O)ccc(O)c21`: the TGI in experiment [1] is over 10 µM; in [3], over 10 µM; in [4] it was over 10 µM; in experiment [5], over 10 µM; in experiment [6], over 1 µM; in experiment [7], over 10 µM. Also, the TGI in experiment [8], in experiment [9] and in experiment [10] was over 10 µM in each case.

In the case of `CCn1nc(-c2ccccc2)c2c1N(C)c1ccccc1-n1c(-c3ccccc3)nnc1-2`, the TGI in experiment [1] was 30.6 µM; in experiment [2], 48.5 µM; in [3] it was 29.7 µM; in [4], 29.3 µM; in experiment [5], 33 µM; in experiment [6], over 100 µM. Further, the TGI in [7] is 48 µM; in experiment [8], 32.8 µM; in experiment [9] it was 21.2 µM.

Take `CC(C)(C)OC(=O)NC1CCCC1C(O)(C1=CCCC1)C1=CCCC1` (centres undefined): the TGI in [1], in experiment [2], in experiment [3], in experiment [4], in experiment [5] and in [6] was over 100 µM in each case. Besides, the TGI in [8], in [9] and in experiment [10] was over 100 µM throughout.

As to `COC(=O)c1c(O)ccc2c1c1c(n2Cc2ccc(OC)cc2)C(=O)c2ccccc2C1=O`, the TGI was 28.5 µM in experiment [1]; 3.3 µM in experiment [2]; 52.5 µM in [3]; 7.18 µM in experiment [4]; 23.2 µM in experiment [5]; 22.3 µM in experiment [6]. Also, the TGI amounted to 29.1 µM in [7], 25.6 µM in [8] and 94.3 µM in experiment [10].

For the compound `CCC(C)NC(=S)N/N=C(\C)c1ccccn1` (centres undefined), the TGI in experiment [1] was over 100 µM; in experiment [2], over 100 µM; in experiment [3], over 46.8 µM; in experiment [4], over 100 µM; in experiment [5], over 100 µM; in experiment [6], over 100 µM. In addition, the TGI was 6.89 µM in [7] and over 100 µM in [8].
